Where two headings read alike, the source gives them in different places.
How the values were obtained:
hT2R44 = test: hT2R panel inhibition, transient HEK293 G16g44, agonist Denatonium 0.5 μM; type: cell-based, human; conditions: compound at 25 μM; for inhibition of bitter receptor 44: receptor activated to EC80 with agonist
In short: (§1)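 Compound C tested for reduction of receptor activity evoked by EC80-level bitter agonists, receptor by receptor. Assay cells: HEK293 line stably carrying promiscuous G protein G16g44, transiently transfected with individual human T2Rs.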

hT2R65 = test: hT2R panel inhibition, transient HEK293 G16g44, agonist Oleuropein 1 mM; type: cell-based, human; conditions: compound at 25 μM
In short: as §1

hT2R61 = hT2R61 (Homo sapiens (Human), UniProt P59537); test: hT2R panel inhibition, transient HEK293 G16g44, agonist Aristolochic Acid 25 nM; type: cell-based; conditions: HEK293, compound at 25 μM
hT2R61, sequence (P59537 whole entry): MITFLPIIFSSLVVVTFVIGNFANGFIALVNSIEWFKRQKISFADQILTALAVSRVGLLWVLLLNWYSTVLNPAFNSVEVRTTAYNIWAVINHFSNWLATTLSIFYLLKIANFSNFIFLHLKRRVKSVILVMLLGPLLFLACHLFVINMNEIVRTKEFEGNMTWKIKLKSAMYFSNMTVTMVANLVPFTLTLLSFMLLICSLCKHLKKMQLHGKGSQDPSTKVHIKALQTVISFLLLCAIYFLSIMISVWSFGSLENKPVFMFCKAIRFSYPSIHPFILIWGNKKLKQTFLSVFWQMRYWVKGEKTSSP
In short: as §1

hT2R4 = hT2R4 (Homo sapiens (Human), UniProt Q9NYW5); test: hT2R panel inhibition, transient HEK293 G16g44, agonist Chloroquine pH6.5 5 mM; type: cell-based; conditions: HEK293, compound at 25 μM
hT2R4, sequence (Q9NYW5 whole entry): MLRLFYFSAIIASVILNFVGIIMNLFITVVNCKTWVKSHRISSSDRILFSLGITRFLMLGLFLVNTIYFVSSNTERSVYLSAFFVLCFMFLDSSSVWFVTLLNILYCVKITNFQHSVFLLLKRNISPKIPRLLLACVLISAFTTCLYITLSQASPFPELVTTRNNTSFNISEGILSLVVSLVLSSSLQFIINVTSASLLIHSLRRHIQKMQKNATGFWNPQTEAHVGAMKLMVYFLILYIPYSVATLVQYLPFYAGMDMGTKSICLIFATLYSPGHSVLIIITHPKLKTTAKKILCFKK
In short: as §1

hT2R64 = hT2R64 (Homo sapiens (Human), UniProt P59538); test: hT2R panel inhibition, transient HEK293 G16g44, agonist Aristolochic Acid 1 μM; type: cell-based; conditions: HEK293, compound at 25 μM
hT2R64, sequence (P59538 whole entry): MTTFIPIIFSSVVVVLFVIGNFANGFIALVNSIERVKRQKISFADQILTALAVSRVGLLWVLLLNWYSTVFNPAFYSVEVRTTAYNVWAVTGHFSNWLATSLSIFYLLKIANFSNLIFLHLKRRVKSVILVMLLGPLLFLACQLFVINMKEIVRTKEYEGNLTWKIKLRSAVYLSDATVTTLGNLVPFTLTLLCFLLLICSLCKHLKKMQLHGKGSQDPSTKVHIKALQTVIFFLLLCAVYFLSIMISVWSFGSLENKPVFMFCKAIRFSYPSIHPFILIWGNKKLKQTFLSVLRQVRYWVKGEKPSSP
In short: as §1

hT2R67 = test: hT2R panel inhibition, transient HEK293 G16g44, agonist Andrographolide 5 μM; type: cell-based, human; conditions: compound at 25 μM
In short: as §1

hT2R13 = hT2R13 (Homo sapiens (Human), UniProt Q9NYV9); test: hT2R panel inhibition, transient HEK293 G16g44, agonist Oxyphenonium 1 mM; type: cell-based; conditions: HEK293, compound at 25 μM
hT2R13, sequence (Q9NYV9 whole entry): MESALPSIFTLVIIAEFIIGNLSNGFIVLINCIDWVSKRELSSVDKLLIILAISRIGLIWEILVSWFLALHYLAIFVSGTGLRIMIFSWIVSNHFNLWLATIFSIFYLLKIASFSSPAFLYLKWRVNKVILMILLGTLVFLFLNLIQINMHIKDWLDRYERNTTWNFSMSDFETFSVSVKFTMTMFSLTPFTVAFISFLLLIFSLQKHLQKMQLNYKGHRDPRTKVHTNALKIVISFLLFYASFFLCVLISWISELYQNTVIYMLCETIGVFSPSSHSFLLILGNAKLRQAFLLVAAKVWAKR
Description: Specifically, in order to evaluate the inhibitory selectivity of the Compound C compound, this compound was tested against 22 human T2Rs which were deorphaned by Senomyx. These receptors and the bitter ligands that activate these human T2Rs are reported in earlier patent applications which are incorporated by reference herein. These 22 human T2Rs are hT2R1, 3, 4, 5, 7, 8, 9, 10, 13, 14, 16, 44, 51, 54, 55, 61, 63, 64, 65, 67, 71 and 75. The amino acid and nucleic acid sequences of all of these T2Rs may be found in these earlier patent applications. These human T2Rs were each individually transiently transfected into HEK293 cells that stably express the promiscuous G protein G16g44 and functional assays were effected using these receptors as disclosed in these same patent applications. […] The ligands were used at EC80 concentration levels. The list of bitter ligands utilized and the tested ligand concentrations are contained in Table 5 of this example.
Relating to the foregoing, FIG. 5 contains experimental results wherein Compound C was tested with different agonist compounds. The inhibition activity is represented by the reduction of receptor activity in the presence of Compound C. […] These 13 hT2Rs are hT2R3, 7, 10, 14, 16, 44, 51, 55, 61, 63, 64, 65, and 71.

hT2R71 = hT2R71 (Homo sapiens (Human), UniProt P59536); test: hT2R panel inhibition, transient HEK293 G16g44, agonist Picric Acid 10 μM; type: cell-based; conditions: HEK293, compound at 25 μM
hT2R71, sequence (P59536 whole entry): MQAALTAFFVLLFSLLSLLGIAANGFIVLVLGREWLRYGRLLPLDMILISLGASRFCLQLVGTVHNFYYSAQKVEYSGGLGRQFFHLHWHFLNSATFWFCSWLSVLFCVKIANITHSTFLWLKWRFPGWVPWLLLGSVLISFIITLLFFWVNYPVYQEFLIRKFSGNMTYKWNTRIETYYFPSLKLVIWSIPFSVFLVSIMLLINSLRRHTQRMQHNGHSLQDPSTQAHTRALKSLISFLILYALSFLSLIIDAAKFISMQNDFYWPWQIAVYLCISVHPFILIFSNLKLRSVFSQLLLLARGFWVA
In short: as §1

hT2R63 = test: hT2R panel inhibition, transient HEK293 G16g44, agonist Caffeine 1 mM or Andrographolide 100 μM; type: cell-based, human; conditions: compound at 25 μM; for inhibition of bitter receptor 63: receptor activated to EC80 with agonist
In short: as §1

hT2R3 = hT2R3 (Homo sapiens (Human), UniProt Q9NYW6); test: hT2R panel inhibition, transient HEK293 G16g44, agonist Chloroquine pH6.5 50 μM; type: cell-based; conditions: HEK293, compound at 25 μM
hT2R3, sequence (Q9NYW6 whole entry): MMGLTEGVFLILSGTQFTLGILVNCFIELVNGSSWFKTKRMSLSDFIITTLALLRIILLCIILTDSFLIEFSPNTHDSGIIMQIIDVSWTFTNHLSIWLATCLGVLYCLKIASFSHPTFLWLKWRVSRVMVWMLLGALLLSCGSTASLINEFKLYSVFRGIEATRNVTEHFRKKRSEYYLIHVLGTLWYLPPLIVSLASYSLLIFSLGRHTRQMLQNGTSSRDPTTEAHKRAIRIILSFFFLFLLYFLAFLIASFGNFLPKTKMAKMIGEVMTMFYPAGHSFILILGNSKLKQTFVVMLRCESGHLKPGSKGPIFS
In short: as §1

hT2R14 [1] = target: T1, hT2R14 (Homo sapiens (Human), UniProt Q9NYV8); test: hT2R panel inhibition, transient HEK293 G16g44, agonist Aristolochic Acid 2 μM; type: cell-based; conditions: HEK293, compound at 25 μM
T1 sequence (Q9NYV8 whole entry): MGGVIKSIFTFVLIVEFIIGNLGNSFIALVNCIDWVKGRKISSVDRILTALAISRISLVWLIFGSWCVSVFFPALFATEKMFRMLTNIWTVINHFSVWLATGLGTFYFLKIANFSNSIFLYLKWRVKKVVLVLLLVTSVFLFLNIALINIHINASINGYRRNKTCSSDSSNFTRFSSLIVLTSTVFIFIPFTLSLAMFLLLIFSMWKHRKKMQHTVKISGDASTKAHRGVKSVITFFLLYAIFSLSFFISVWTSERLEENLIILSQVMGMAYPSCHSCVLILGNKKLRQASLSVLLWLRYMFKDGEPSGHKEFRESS
In short: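 Agonist challenge was at EC80, with 0.5 mM andrographolide on hT2R8 and 2 μM aristolochic acid on hT2R14. Inhibition was measured in functional assays in HEK293 cells that stably carry the promiscuous G protein G16g44 and were transiently transfected with the individual receptor.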

hT2R55 = test: hT2R panel inhibition, transient HEK293 G16g44, agonist Cinchonine 150 μM; type: cell-based, human; conditions: compound at 25 μM
In short: as §1

hT2R16 = hT2R16 (Homo sapiens (Human), UniProt Q9NYV7); test: hT2R panel inhibition, transient HEK293 G16g44, agonist Salicin 1 mM; type: cell-based; conditions: HEK293, compound at 25 μM
hT2R16, sequence (Q9NYV7 whole entry): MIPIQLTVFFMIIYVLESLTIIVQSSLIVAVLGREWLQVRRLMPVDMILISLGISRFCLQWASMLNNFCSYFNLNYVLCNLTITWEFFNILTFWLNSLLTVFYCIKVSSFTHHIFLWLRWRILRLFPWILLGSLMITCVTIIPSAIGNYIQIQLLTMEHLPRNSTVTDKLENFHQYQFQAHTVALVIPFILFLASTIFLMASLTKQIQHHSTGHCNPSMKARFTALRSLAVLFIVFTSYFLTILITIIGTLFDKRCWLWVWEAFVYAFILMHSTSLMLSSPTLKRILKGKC
In short: as §1

hT2R10 = hT2R10 (Homo sapiens (Human), UniProt Q9NYW0); test: hT2R panel inhibition, transient HEK293 G16g44, agonist Strychnine 50 μM; type: cell-based; conditions: HEK293, read-out: inhibition of bitter receptor 10, compound at 25 μM; receptor activated to EC80 with agonist
hT2R10, sequence (Q9NYW0 whole entry): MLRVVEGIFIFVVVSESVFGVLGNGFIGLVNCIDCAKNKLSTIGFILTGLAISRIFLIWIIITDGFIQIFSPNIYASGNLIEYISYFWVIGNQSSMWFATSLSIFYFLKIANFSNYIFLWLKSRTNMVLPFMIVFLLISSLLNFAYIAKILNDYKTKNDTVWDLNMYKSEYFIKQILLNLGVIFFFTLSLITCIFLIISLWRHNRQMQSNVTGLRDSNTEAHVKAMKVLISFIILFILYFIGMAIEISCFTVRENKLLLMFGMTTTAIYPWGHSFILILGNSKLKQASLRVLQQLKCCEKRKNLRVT

hT2R7 = hT2R7 (Homo sapiens (Human), UniProt Q9NYW3); test: hT2R panel inhibition, transient HEK293 G16g44, agonist Chloroquine pH6.5 10 mM; type: cell-based; conditions: HEK293, compound at 25 μM; receptor activated to EC80 with agonist; read-out: inhibition of bitter receptor 7
hT2R7, sequence (Q9NYW3 whole entry): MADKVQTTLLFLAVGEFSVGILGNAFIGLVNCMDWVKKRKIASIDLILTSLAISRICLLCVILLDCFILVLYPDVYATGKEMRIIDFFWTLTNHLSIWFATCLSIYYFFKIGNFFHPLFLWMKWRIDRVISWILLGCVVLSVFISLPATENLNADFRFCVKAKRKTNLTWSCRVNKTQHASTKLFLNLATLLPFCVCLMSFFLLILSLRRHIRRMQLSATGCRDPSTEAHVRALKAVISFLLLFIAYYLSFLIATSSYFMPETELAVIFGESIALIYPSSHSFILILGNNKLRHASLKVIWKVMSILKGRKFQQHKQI
In short: as §1

hT2R54 = test: hT2R panel inhibition, transient HEK293 G16g44, agonist Ranitidine 5 mM; type: cell-based, human; conditions: compound at 25 μM; receptor activated to EC80 with agonist
In short: as §1

hT2R51 = hT2R51 (Homo sapiens (Human), UniProt P59533); test: hT2R panel inhibition, transient HEK293 G16g44, agonist Prop 2.5 μM; type: cell-based; conditions: HEK293, compound at 25 μM; receptor activated to EC80 with agonist; read-out: inhibition of bitter receptor 51
hT2R51, sequence (P59533 whole entry): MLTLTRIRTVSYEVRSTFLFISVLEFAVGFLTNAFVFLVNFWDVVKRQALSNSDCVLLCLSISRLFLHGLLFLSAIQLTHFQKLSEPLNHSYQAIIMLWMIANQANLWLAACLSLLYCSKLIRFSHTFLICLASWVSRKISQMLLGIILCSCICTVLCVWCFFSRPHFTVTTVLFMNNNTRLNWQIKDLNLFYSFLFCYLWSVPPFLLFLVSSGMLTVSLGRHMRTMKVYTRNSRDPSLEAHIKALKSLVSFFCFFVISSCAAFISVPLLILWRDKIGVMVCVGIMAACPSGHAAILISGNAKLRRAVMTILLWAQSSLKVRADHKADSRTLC
In short: as §1

hT2R9 = hT2R9 (Homo sapiens (Human), UniProt Q9NYW1); test: hT2R panel inhibition, transient HEK293 G16g44, agonist Ofloxacin 1 mM; type: cell-based; conditions: HEK293, compound at 25 μM; receptor activated to EC80 with agonist; read-out: inhibition of bitter receptor 9
hT2R9, sequence (Q9NYW1 whole entry): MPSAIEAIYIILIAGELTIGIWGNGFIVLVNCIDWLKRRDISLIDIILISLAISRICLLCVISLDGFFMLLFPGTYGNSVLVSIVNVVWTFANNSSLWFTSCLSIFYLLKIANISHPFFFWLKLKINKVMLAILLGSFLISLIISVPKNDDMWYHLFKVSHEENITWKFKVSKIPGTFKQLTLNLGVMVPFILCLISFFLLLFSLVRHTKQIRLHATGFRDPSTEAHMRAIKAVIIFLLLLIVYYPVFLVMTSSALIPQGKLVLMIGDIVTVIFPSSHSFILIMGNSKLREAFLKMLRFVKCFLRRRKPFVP
In short: as §1

hT2R14 [2] = target: T1, hT2R14; test: hT2R14 antagonist high-throughput FLIPR assay, stable cell line with G16g44, agonist aristolochic acid; type: cell-based; conditions: read-out: IC50 on hT2R14 bitter receptor
In short: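 Compounds were co-applied with 3 μM aristolochic acid, a dose set to reach 70-80% of maximal hT2R14 activation. Read-out was FLIPR fluorescence in a stable HEK293 line co-expressing hT2R14 and G16g44.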

[3] = receptor activated to EC80 with the corresponding agonist
[4] = receptor activated to EC80 with agonist
[5] = receptor activated to EC80 with agonist, read-out: inhibition of bitter receptor 61
[6] = receptor activated to EC80 with agonist, read-out: inhibition of bitter receptor 13
[7] = receptor activated to EC80 with agonist, read-out: inhibition of bitter receptor 14

Question: `COc1ccc(CN(C2CCCc3ccccc32)S(=O)(=O)c2ccc(C(=O)O)cc2)cc1` (centres unmarked) [Example 5-96, 4-(N-(4-methoxybenzyl)-N-(1,2,3,4-tetrahydronaphthalen-1-yl)sulfamoyl)benzoic acid] was tested. Which “screening result against bitter receptor 44” value (hT2R44; [3]) did it give?
Answer: Its value is “+++ (60% to 80% inhibition = +++)”.

Question: What about the “screening result against bitter receptor 65” value (hT2R65; [3]) of the same molecule?
Answer: Its value is “++++ (80% or greater inhibition = ++++)”.

Question: And the inhibition at 25 µM (hT2R61; receptor activated to EC80 with the corresponding agonist, read-out: screening result against bitter receptor 61)?
Answer: Its inhibition at 25 µM is greater than 80%.

Question: And the inhibition at 25 µM (hT2R4; receptor activated to EC80 with the corresponding agonist, class symbols, read-out: screening result against bitter receptor 4)?
Answer: Its inhibition at 25 µM is 20 to 40%.

Question: What about the inhibition at 25 µM (hT2R64; receptor activated to EC80 with the corresponding agonist, read-out: screening result against bitter receptor 64) of the same molecule?
Answer: Its inhibition at 25 µM is 60 to 80%.

Question: What about the “screening result against bitter receptor 67” value (hT2R67; [3]) of the same molecule?
Answer: Its value is “+ (20% to 40% inhibition = +)”.

Question: And the inhibition at 25 µM (hT2R13; receptor activated to EC80 with the corresponding agonist, read-out: screening result against bitter receptor 13)?
Answer: The inhibition at 25 µM was 20 to 40%.

Question: What about the inhibition at 25 µM (hT2R71; receptor activated to EC80 with the corresponding agonist, read-out: screening result against bitter receptor 71) of the same molecule?
Answer: The inhibition at 25 µM was 40 to 60%.

Question: What about the “screening result against bitter receptor 63” value (hT2R63; [3]) of the same molecule?
Answer: Its value is “++++ (80% or greater inhibition = ++++)”.

Question: And the inhibition at 25 µM (hT2R3; receptor activated to EC80 with the corresponding agonist, read-out: screening result against bitter receptor 3)?
Answer: Its inhibition at 25 µM is 20 to 40%.

Question: What about the inhibition at 25 µM (hT2R14 [1]; receptor activated to EC80 with the corresponding agonist, read-out: screening result against bitter receptor 14) of the same molecule?
Answer: The inhibition at 25 µM was greater than 80%.

Question: What about the “screening result against bitter receptor 55” value (hT2R55; [3]) of the same molecule?
Answer: The value was “++++ (80% or greater inhibition = ++++)”.

Question: And the inhibition at 25 µM (hT2R16; receptor activated to EC80 with the corresponding agonist, read-out: screening result against bitter receptor 16)?
Answer: Its inhibition at 25 µM is 20 to 40%.

Question: With `CCCOc1ccc(CN(Cc2ccccc2)S(=O)(=O)c2ccc(C(=O)O)cc2)cc1` [Example 5-109, 4-(N-benzyl-N-(4-propoxybenzyl)sulfamoyl)benzoic acid] as the molecule, how does the inhibition at 25 µM (hT2R10) read?
Answer: Its inhibition at 25 µM is 40 to 60%.

Question: And the inhibition at 25 µM (hT2R7)?
Answer: The inhibition at 25 µM was 20 to 40%.

Question: And the “inhibition of bitter receptor 44” value (hT2R44)?
Answer: Its value is “++ (40% to 60% inhibition = ++)”.

Question: What about the “inhibition of bitter receptor 65” value (hT2R65; [4]) of the same molecule?
Answer: The value was “+++ (60% to 80% inhibition = +++)”.

Question: And the “inhibition of bitter receptor 54” value (hT2R54)?
Answer: Its value is “+ (20% to 40% inhibition = +)”.

Question: What about the inhibition at 25 µM (hT2R61; [5]) of the same molecule?
Answer: Its inhibition at 25 µM is 60 to 80%.

Question: What about the inhibition at 25 µM (hT2R4; receptor activated to EC80 with agonist, read-out: inhibition of bitter receptor 4) of the same molecule?
Answer: Its inhibition at 25 µM is 40 to 60%.

Question: And the inhibition at 25 µM (hT2R64; receptor activated to EC80 with agonist, read-out: inhibition of bitter receptor 64)?
Answer: The inhibition at 25 µM was greater than 80%.

Question: What about the “inhibition of bitter receptor 67” value (hT2R67; [4]) of the same molecule?
Answer: Its value is “+ (20% to 40% inhibition = +)”.

Question: What about the inhibition at 25 µM (hT2R13; [6]) of the same molecule?
Answer: Its inhibition at 25 µM is 20 to 40%.

Question: What about the inhibition at 25 µM (hT2R71; receptor activated to EC80 with agonist, read-out: inhibition of bitter receptor 71) of the same molecule?
Answer: Its inhibition at 25 µM is 60 to 80%.

Question: What about the “inhibition of bitter receptor 63” value (hT2R63) of the same molecule?
Answer: The value was “++ (40% to 60% inhibition = ++)”.

Question: And the inhibition at 25 µM (hT2R3; receptor activated to EC80 with agonist, read-out: inhibition of bitter receptor 3)?
Answer: The inhibition at 25 µM was 40 to 60%.

Question: And the inhibition at 25 µM (hT2R51)?
Answer: Its inhibition at 25 µM is 40 to 60%.

Question: And the inhibition at 25 µM (hT2R14 [1]; [7])?
Answer: The inhibition at 25 µM was greater than 80%.

Question: And the “inhibition of bitter receptor 55” value (hT2R55; [4])?
Answer: The value was “++++ (80% or greater inhibition = ++++)”.

Question: What about the inhibition at 25 µM (hT2R16; receptor activated to EC80 with agonist, read-out: inhibition of bitter receptor 16) of the same molecule?
Answer: The inhibition at 25 µM was 20 to 40%.

Question: With `Cn1c(=O)c(=O)n(C)c2cc(S(=O)(=O)Nc3ccc(Cc4ccccn4)cc3)ccc21` [Example 6-4, 1,4-dimethyl-2,3-dioxo-N-(4-(pyridin-2-ylmethyl)phenyl)-1,2,3,4-tetrahydroquinoxaline-6-sulfonamide] as the molecule, how does the inhibition at 25 µM (hT2R7) read?
Answer: The inhibition at 25 µM was 20 to 40%.

Question: What about the “inhibition of bitter receptor 44” value (hT2R44) of the same molecule?
Answer: The value was “+ (20% to 40% inhibition = +)”.

Question: What about the inhibition at 25 µM (hT2R9) of the same molecule?
Answer: Its inhibition at 25 µM is 20 to 40%.

Question: And the inhibition at 25 µM (hT2R61; [5])?
Answer: The inhibition at 25 µM was 20 to 40%.

Question: And the inhibition at 25 µM (hT2R13; [6])?
Answer: The inhibition at 25 µM was greater than 80%.

Question: What about the “inhibition of bitter receptor 63” value (hT2R63) of the same molecule?
Answer: The value was “+ (20% to 40% inhibition = +)”.

Question: What about the IC50 (hT2R14 [2]) of the same molecule?
Answer: The IC50 was 6.14 µM.

Question: And the inhibition at 25 µM (hT2R14 [1]; [7])?
Answer: The inhibition at 25 µM was greater than 80%.

— patent publication US9247759B2, “Identification of human T2R receptors that respond to bitter compounds that elicit the bitter taste in compositions, and the use thereof in assays to identify compounds that inhibit (block) bitter taste in compositions and use thereof” (SENOMYX, INC., priority 2007, dated 2016)
